Laboratory results published in patent US12122761B2, “2-azaspiro[3.4]octane derivatives as M4 agonists” (NOVARTIS AG, priority 2019, dated 2024).

Legend:
Assay type in all cases: cell-based
[1] = biological target: T1, Cloned human M1 receptor (CHRM1) stably expressed in HEK293 cells (Homo sapiens, UniProt P11229); experiment: CHRM1 Ca++ Flux Assay (agonist mode, FDSS 7000EX); details: for M1 FDSS PA: Percent Activity; for EC50: geometric mean if tested more than once; for Emax: HEK293, Percent Activity, read-out: M1 FDSS PA
T1 construct: expressed in transfected cells; host or cells: HEK293
T1 sequence (P11229 1-460): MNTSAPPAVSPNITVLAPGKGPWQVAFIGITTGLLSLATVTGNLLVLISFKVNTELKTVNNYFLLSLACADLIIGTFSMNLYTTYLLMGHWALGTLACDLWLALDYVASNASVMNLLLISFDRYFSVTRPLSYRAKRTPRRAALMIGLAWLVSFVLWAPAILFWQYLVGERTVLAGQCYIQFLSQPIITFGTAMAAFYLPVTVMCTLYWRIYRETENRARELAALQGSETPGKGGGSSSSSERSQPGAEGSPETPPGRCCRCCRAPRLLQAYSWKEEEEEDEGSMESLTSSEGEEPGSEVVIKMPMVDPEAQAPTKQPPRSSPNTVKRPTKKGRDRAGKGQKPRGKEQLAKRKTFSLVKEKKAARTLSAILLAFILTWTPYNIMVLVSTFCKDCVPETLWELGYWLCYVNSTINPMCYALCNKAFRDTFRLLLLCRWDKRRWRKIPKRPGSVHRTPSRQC
Procedure: The above examples were characterized by measuring the intracellular mobilization of Ca++ ions caused by signaling events mediated by the receptor. The Intra-cellular Calcium flux levels were captured by the highly sensitive Ca++ indicator, Calcium Assay Kit (BD Biosciences, Catalog Number 640178). The fluorescent activity from all receptors were monitored by the fluorescent imager, FDSS 7000EX (Hamamatsu) over a span of 3 minutes.
Cloned human M1 receptor (CHRM1) was stably expressed in HEK293 cells and were grown and maintained in a monolayer culture with DMEM/High Glucose (Life Technologies) supplemented with 10% Fetal Bovine Serum, 1× Pen-Strep, and 0.5 mg/mL Geneticin in a humidified atmosphere (5% CO2) at 37° C. The cultures were grown to 90% confluency in T150 flasks (Corning) and washed with 1×DPBS and lifted with 0.05% Trypsin (Life Technologies). The cells were then spun (1K rpm, 3 minutes) and frozen using Recovery Cell Culture Freezing Media (Gibco Technologies). Cells were stored in liquid nitrogen and thawed a day before the assay.
Prior to the day of the assay, stable HEK293 M1 cells were thawed and plated on 384 well black walled clear bottom TC treated plates (Greiner Cat #781091) at 25K cells/well with DMEM/High Glucose supplemented with 10% FBS (Hyclone) Pen-Strep (Life Technologies) and kept overnight in a humidified atmosphere (5% CO2) at 37° C. The following day, cells were loaded with 20 uL Ca^++ dye (BD Biosciences) using Loading Buffer (HBSS +Ca/+Mg, 20 mM HEPES) and placed back in cell incubator for a minimum of 1 hour. The dye was replaced with 45 μL Assay Buffer (HBSS −Ca/−Mg, 20 mM HEPES) and kept at room temperature prior to running on cell imager. Compounds were prepared in Assay Buffer and 5 uL was added to the cells. The FDSS 7000EX (Hamamatsu) was used to acquire Ca++ traces for 3 minutes from cells treated with 11 point dose in triplicate in order to generate dose response curves in agonist mode. All compounds were serially diluted in DMSO then prepared in Assay Buffer for Ca^++ flux studies. The dose response curves were generated from the average of triplicate wells obtained from each data point and used a non-linear regression of four parameter dose response algorithm. The Percent Activity (PA) was measured to EC100 of Carbachol.

[2] = biological target: T2, human cloned CHRM3 receptor (M3_CHO cells) (Homo sapiens, UniProt P20309); experiment: CHRM3 Ca++ Flux Assay (agonist mode, FDSS 7000EX); details: for M3 FDSS PA / Emax: Percent Activity measured to EC100 of Carbachol; for EC50: agonist mode, geometric mean if tested more than once, read-out: M3 FDSS EC50; for Emax: read-out: M3 FDSS PA
T2 construct: expressed in transfected cells; host or cells: CHO-K1
Summary of the method: (§1)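 Stable CHO-K1 lines (human M3 or M5), calcium-dye loaded ≥1 h, assayed in Ca/Mg-free HBSS + 20 mM HEPES + 2.5 mM probenecid. 11-pt dose response, triplicate, 3 min fluorescence read. 4-parameter regression; % activity vs carbachol EC100.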

[3] = biological target: T3, human cloned CHRM5 receptor (M5_CHO) (Homo sapiens, UniProt P08912); experiment: CHRM5 Ca++ Flux Assay (agonist mode, FDSS 7000EX); details: for M5 FDSS PA / Emax: Percent Activity measured to EC100 of Carbachol; for EC50: agonist mode, geometric mean if tested more than once, read-out: M5 FDSS EC50; for Emax: read-out: M5 FDSS PA
T3 construct: expressed in transfected cells; host or cells: CHO (M5_CHO)
T3 sequence (P08912 1-532): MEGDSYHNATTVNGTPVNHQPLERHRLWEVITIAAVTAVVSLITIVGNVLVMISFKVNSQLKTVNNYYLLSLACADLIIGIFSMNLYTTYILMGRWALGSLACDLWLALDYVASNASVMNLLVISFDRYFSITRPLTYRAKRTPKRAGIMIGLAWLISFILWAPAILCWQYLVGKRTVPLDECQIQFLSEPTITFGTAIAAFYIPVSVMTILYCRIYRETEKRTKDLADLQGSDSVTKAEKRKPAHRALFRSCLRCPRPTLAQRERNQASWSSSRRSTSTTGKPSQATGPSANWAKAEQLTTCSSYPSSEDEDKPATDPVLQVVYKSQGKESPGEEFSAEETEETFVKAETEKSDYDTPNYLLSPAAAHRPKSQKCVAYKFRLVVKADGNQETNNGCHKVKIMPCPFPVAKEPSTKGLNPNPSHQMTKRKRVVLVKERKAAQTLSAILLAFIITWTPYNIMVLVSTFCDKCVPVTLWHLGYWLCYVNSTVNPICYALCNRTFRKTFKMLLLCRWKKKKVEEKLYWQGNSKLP
Summary of the method: as §1

T2 sequence (P20309 whole entry): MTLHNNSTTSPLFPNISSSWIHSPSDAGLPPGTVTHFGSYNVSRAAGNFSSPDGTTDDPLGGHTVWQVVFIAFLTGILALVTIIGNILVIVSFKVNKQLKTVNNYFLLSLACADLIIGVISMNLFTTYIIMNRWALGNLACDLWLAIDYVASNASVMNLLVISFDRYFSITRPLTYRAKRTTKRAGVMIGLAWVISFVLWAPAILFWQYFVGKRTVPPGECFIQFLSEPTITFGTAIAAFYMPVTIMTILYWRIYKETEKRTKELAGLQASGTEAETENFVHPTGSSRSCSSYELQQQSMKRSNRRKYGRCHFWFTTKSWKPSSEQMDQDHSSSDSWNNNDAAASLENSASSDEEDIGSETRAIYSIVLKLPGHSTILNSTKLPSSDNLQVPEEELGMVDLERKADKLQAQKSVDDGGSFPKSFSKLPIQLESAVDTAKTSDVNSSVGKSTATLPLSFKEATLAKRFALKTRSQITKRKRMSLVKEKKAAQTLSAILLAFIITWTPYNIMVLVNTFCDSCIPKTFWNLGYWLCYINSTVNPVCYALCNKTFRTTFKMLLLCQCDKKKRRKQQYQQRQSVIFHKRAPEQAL

Row | M1 FDSS PA [1] | EC50 [1] | M3 FDSS PA [2] | EC50 [2] | M5 FDSS PA [3] | EC50 [3] | Emax [1] | Emax [2] | Emax [3] | Compound
1 | 34% | 0.12 µM | 0% | > 25 µM | 0% | > 25 µM |  |  |  | O=C(N1CC2(CC[C@@H](N3CCC(c4ccccc4OC4CCOCC4)CC3)C2)C1)C1(F)CC1 (single isomer, unassigned) [Example 9E, (R)-(1-fluorocyclopropyl)(6-(4-(2-((tetrahydro-2H-pyran-4-yl)oxy)phenyl)piperidin-1-yl)-2-azaspiro[3.4]octan-2-yl)methanone or (S)-(1-fluorocyclopropyl)(6-(4-(2-((tetrahydro-2H-pyran-4-yl)oxy)phenyl)piperidin-1-yl)-2-azaspiro[3.4]octan-2-yl)methanone]
2 | 50% | 0.736 µM | 2% | 12.4 µM | 2% | > 25 µM |  |  |  | FC(F)(F)Oc1ccccc1C1CCN([C@@H]2CCC3(C2)CN(c2ncco2)C3)CC1 (single isomer, unassigned) [Example 10L, (R)-2-(6-(4-(2-(trifluoromethoxy)phenyl)piperidin-1-yl)-2-azaspiro[3.4]octan-2-yl)oxazole or (S)-2-(6-(4-(2-(trifluoromethoxy)phenyl)piperidin-1-yl)-2-azaspiro[3.4]octan-2-yl)oxazole]
3 | 4% | 3.99 µM | 0% | > 25 µM | 0% | > 25 µM |  |  |  | Fc1ccc(OC2CC3(COC3)C2)c(C2CCN([C@@H]3CCC4(C3)CN(c3cncnc3)C4)CC2)c1 (single isomer, unassigned) [Example 10E, (R)-6-(4-(2-((2-oxaspiro[3.3]heptan-6-yl)oxy)-5-fluorophenyl)piperidin-1-yl)-2-(pyrimidin-5-yl)-2-azaspiro[3.4]octane or (S)-6-(4-(2-((2-oxaspiro[3.3]heptan-6-yl)oxy)-5-fluorophenyl)piperidin-1-yl)-2-(pyrimidin-5-yl)-2-azaspiro[3.4]octane]

Further lines, the compound ahead of its results:

Row | Compound | M1 FDSS PA [1] | EC50 [1] | M3 FDSS PA [2] | EC50 [2] | M5 FDSS PA [3] | EC50 [3] | Emax [1] | Emax [2] | Emax [3]
4 | CCOc1ccccc1C1CCN([C@@H]2CCC3(C2)CN(C(=O)C2(F)CC2)C3)CC1 (single isomer, unassigned) [Example 7S, (R)-(6-(4-(2-ethoxyphenyl)piperidin-1-yl)-2-azaspiro[3.4]octan-2-yl)(1-fluorocyclopropyl)methanone or (S)-(6-(4-(2-ethoxyphenyl)piperidin-1-yl)-2-azaspiro[3.4]octan-2-yl)(1-fluorocyclopropyl)methanone] | 0% | > 25 µM | 0% | > 25 µM | 0% | > 25 µM |  |  | 
5 | O=C(N1CC2(CC[C@@H](N3CCC(c4ccccc4OCC4CC4)CC3)C2)C1)C1(F)CC1 (single isomer, unassigned) [Example 7O, (R)-(6-(4-(2-(cyclopropylmethoxy)phenyl)piperidin-1-yl)-2-azaspiro[3.4]octan-2-yl)(1-fluorocyclopropyl)methanone or (R)-(6-(4-(2-(cyclopropylmethoxy)phenyl)piperidin-1-yl)-2-azaspiro[3.4]octan-2-yl)(1-fluorocyclopropyl)methanone] | 57% | 0.037 µM | 0% | > 25 µM | 0% | > 25 µM |  |  | 
6 | Cc1nc(COc2ccccc2C2CCN([C@@H]3CCC4(C3)CN(C(=O)C3(F)CC3)C4)CC2)no1 (single isomer, unassigned) [Example 7X, (R)-(1-fluorocyclopropyl)(6-(4-(2-((5-methyl-1,2,4-oxadiazol-3-yl)methoxy)phenyl)piperidin-1-yl)-2-azaspiro[3.4]octan-2-yl)methanone or (S)-(1-fluorocyclopropyl)(6-(4-(2-((5-methyl-1,2,4-oxadiazol-3-yl)methoxy)phenyl)piperidin-1-yl)-2-azaspiro[3.4]octan-2-yl)methanone] | 86% | 0.003 µM | 0% | > 25 µM | 9% | 0.071 µM |  |  | 
7 | COc1ccccc1C1CCN([C@@H]2CCC3(C2)CN(c2ccc(Cl)nn2)C3)CC1 [Example 5N, (R)-2-(6-chloropyridazin-3-yl)-6-(4-(2-methoxyphenyl)piperidin-1-yl)-2-azaspiro[3.4]octane] |  | > 25 µM |  | 11.3 µM |  | 22.9 µM | 0% | 9% | 8%
8 | Cc1nnc(COc2ccccc2C2CCN([C@@H]3CCC4(C3)CN(C(=O)C3(F)CC3)C4)CC2)o1 (single isomer, unassigned) [Example 7W, (R)-(1-fluorocyclopropyl)(6-(4-(2-((5-methyl-1,3,4-oxadiazol-2-yl)methoxy)phenyl)piperidin-1-yl)-2-azaspiro[3.4]octan-2-yl)methanone or (S)-(1-fluorocyclopropyl)(6-(4-(2-((5-methyl-1,3,4-oxadiazol-2-yl)methoxy)phenyl)piperidin-1-yl)-2-azaspiro[3.4]octan-2-yl)methanone] | 80% | 0.002 µM | 0% | > 25 µM | 8% | 0.077 µM |  |  | 
9 | Fc1ccc(OC2CC3(COC3)C2)c(C2CCN([C@@H]3CCC4(C3)CN(c3nnco3)C4)CC2)c1 [Example 1B, (R)-2-(6-(4-(2-((2-oxaspiro[3.3]heptan-6-yl)oxy)-5-fluorophenyl)piperidin-1-yl)-2-azaspiro[3.4]octan-2-yl)-1,3,4-oxadiazole] |  | 0.322 µM |  | > 25 µM |  | > 25 µM | 48% | 0% | 0%
10 | CC(C)(O)COc1ccccc1C1CCN([C@@H]2CCC3(C2)CN(c2cncnc2)C3)CC1 [Example 5B, (R)-2-methyl-1-(2-(1-(2-(pyrimidin-5-yl)-2-azaspiro[3.4]octan-6-yl)piperidin-4-yl)phenoxy)propan-2-ol] |  | 0.191 µM |  | > 25 µM |  | > 25 µM | 35% | 0% | 0%
